Consider 7 compounds from patent US8067197B2, “Soluble recombinant αvβ3 adhesion receptor” (Merck Patent GmbH, priority 1996, dated 2011).

Square brackets hold non-standard residues; d marks the D form. βAla = NCCC(=O)O

In general, IC50 refers to the concentration at which inhibition is half-maximal.

The subject of assay [1] is αV and β3 virus infected Sf9 cells. The assay can be described thus: Cell shape change studies of virus-infected Sf9 cells on vitronectin coated plates. The format is cell-based, insect. The following applies: result in words. From the text:
Integrins determine and modulate the cell shape by acting as structural links between the extracellular matrix and the cytoskeleton (Schwartz et al. 1995, Ann. Rev. Cell Dev. Biol. 11, 549; Montgomery et al. 1994, Proc. Natl. Acad. Sci. USA 91, 8856). In later phases of baculovirus infection, Sf9/High Five cells are usually rounded and loosely attached (FIG. 3A), as were the cells infected with either of the αV or β3 expressing recombinant baculovirus alone or with the null recombinant virus (FIG. 3A). […] No shape change is observed in cells co-infected with αV(FL)+β3(SL) or αV(SL)+β3(SL). […] Correspondingly, cell shape change of αV and β3 virus infected Sf9 cells on vitronectin coated plates are inhibited when challenged with RGD peptides (Table 1).
Sf9 cells (1×10^6 cells/well) were allowed to adhere to six-well plates either virgin or coated with purified human plasma vitronectin (5 μg/ml in PBS; 2 hours) followed by blocking of non-specific sites (3% BSA (w/v) in PBS), then infected with various virus combinations. The cells were observed 48 hours post-infection for cell shape change.

For assay [2], the system named is αVβ3 receptor (placenta, full length recombinant, soluble recombinant). Put plainly: Ligand binding assay: biotinylated ligands on immobilized integrins. Also on record: species or system human. The following applies: full length and soluble recombinant αVβ3, compared with placental αVβ3; result in words. On the procedure:
The truncated and full length recombinant αVβ3 and placenta αVβ3 are immobilized and binding of biotinylated ligands is examined. Three purified RGD-containing ligands—vitronectin, fibrinogen and fibronectin—that are known to bind to αVβ3 are used. […] Vitronectin is used for testing specific interaction with the recombinant αVβ3. Biotinylated vitronectin and increasing concentrations of above-specified peptides or non-peptidic analogues are incubated in parallel with immobilized receptor.
Proteins in PBS were diluted with 5-fold concentrated ligation buffer [500 mM NaCl, 500 mM NaHCO3] to 1 mg/ml protein. Freshly prepared N-hydroxysuccinimidobiotin (Sigma) [1 mg/ml in DMSO] was added to 0.1 mg/ml and incubated for 2 h at 20° C. After dialysis [PBS, 0.025% NaN3], protein concentration was determined. The biotinylated proteins were stored at 4° C.
Ligand Binding assay Integrins were diluted to 1 μg/ml in coating buffer [150 mM NaCl, 1 mM CaCl2, 1 mM MgCl2, 10 μM MnCl2, 20 mM Tris-HCl; pH 7.4) and 100 μl were adsorbed overnight at 4° C. to 96-well microtitre plates. The plates were washed once with binding buffer [0.1% (w/v) BSA in coating buffer] and blocked with blocking buffer (coating buffer containing 3% (w/v) BSA) 2 h at 37° C. After rinsing with binding buffer, serially diluted biotinylated ligands were added. After incubation (3 h, 37° C.), unbound ligand was washed from the plate with binding buffer, and bound biotin was detected by incubation with antibiotin-alkaline-phosphatase conjugated antibody and detection of bound antibody with p-Nitrophenyl-phosphate (BIO-RAD) substrate.
Target sequence in this assay (P06756 31-987 limits assumed): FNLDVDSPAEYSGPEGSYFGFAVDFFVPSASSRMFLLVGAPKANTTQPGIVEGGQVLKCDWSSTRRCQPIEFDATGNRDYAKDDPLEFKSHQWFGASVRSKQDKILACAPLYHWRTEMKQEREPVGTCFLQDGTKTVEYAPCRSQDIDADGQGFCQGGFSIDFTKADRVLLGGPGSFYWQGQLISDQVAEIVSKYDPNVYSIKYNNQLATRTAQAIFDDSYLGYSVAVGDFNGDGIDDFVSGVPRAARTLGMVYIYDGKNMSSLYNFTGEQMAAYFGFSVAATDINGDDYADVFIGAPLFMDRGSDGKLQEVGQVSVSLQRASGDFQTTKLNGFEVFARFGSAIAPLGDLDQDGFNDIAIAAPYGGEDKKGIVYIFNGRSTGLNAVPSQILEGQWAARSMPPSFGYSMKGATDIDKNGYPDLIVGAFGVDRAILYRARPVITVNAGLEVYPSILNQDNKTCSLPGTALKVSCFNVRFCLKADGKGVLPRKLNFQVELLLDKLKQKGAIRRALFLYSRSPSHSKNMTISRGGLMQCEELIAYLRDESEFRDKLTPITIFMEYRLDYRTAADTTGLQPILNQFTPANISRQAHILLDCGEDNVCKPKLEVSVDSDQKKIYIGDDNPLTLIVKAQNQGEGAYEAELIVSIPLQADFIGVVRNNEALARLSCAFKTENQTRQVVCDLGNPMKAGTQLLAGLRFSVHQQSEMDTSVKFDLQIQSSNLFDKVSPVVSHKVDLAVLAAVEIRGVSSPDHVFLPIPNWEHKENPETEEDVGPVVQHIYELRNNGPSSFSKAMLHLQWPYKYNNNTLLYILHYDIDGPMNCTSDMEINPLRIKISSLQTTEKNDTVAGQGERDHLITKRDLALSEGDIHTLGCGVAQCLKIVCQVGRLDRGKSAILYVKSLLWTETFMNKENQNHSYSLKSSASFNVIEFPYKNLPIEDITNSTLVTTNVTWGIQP
Target sequence in this assay (P05106 27-718 limits assumed, further chain): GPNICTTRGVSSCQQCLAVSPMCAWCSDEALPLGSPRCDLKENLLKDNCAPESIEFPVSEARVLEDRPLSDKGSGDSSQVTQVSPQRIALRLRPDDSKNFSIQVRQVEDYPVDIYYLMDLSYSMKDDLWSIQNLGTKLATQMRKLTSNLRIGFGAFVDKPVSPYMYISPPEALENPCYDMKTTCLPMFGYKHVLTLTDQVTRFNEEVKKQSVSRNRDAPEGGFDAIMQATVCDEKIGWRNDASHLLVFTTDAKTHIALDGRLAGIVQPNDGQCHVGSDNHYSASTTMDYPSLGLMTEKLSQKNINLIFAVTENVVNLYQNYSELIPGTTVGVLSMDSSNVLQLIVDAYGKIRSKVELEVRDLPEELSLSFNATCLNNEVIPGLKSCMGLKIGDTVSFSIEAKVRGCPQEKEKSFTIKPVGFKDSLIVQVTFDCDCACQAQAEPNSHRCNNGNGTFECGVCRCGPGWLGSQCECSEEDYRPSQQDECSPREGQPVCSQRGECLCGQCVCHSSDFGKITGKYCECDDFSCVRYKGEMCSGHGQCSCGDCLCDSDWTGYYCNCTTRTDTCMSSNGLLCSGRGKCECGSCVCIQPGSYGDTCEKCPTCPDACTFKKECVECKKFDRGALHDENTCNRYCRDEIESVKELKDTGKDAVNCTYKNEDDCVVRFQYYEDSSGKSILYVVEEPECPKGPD

For assay [3], the system named is Sf9 cells expressing full length or truncated αV or β3. Put plainly: Metabolic pulse labelling of proteins expressed in Sf9 cells. The conditions noted are these: tunicamycin 10 μM or 10 μg/ml for 16 hours before and during pulse labelling; SDS-PAGE. The format is cell-based, insect. The method, then:
The cell extracts were resolved by SDS-PAGE under reducing conditions. The molecular mass in kDa of standard protein markers are indicated on the right. • (B) Sf9 cells infected with αV (FL) (lanes 1 and 2), αV(SL) (lane 3 and 4), β3 (FL) (lane 5 and 6) and β3(SL) (lane 7 and 8) were either treated with 10 μM Tunicamycin in DMSO (lanes 1, 3, 5 and 7) or with DMSO alone (lanes 2, 4, 6 and 8). The infected cells were metabolically pulse labelled as above. Standard protein markers are indicated on the right.
Similarly, Sf9 cells expressing full length β3 how two bands of approximately 90 kDa and 125 kDa (FIG. 2A, lane 4).
Metabolic labelling of Sf9 cells was performed as described (Summer and Smith 1987: A manual of methods for baculovirus vectors and insect cell procedures. Texas Agricultural Experiment Station Bulletin B-1555). Where indicated, tunicamycin (Sigma) was present at 10 μg/ml for 16 hours before and during pulse labelling. Cells were lysed with 100 μl of buffer [1% Nonidet® P-40, 1 mM CaCl2, 150 mM NaCl, 0.4 mM Pefabloc® (Boehringer Mann-heim), 10 μg/ml Leupeptin and E64 (Sigma), 10 mM Tris/HCl; pH 7.4; Nonidet P-40 is a detergent and Pefabloc is a protease inhibitor]. […]

For assay [4], the target named is αVβ3 receptor (placenta, full length recombinant, soluble recombinant). The assay can be described thus: Competition assay: inhibition of biotinylated vitronectin binding to immobilized integrin. The conditions noted are these: biotinylated vitronectin 1 μg/ml, 3 h, 37° C. Also on record: species or system human.
Description: The truncated and full length recombinant αVβ3 and placenta αVβ3 are immobilized and binding of biotinylated ligands is examined. Three purified RGD-containing ligands—vitronectin, fibrinogen and fibronectin—that are known to bind to αVβ3 are used. […] Biotinylated vitronectin and increasing concentrations of above-specified peptides or non-peptidic analogues are incubated in parallel with immobilized receptor.
Integrins were immobilized as described above. Serially diluted cyclic peptides were added in parallel with biotinylated vitronectin (1 μg/ml). After 3 h incubation at 37° C., bound ligand was detected as described above. […]

Regarding “cyc(RGEfV) (cyclo(RGE[dF]V); SMILES CC(C)[C@@H]1NC(=O)[C@@H](Cc2ccccc2)NC(=O)[C@H](CCC(=O)O)NC(=O)CNC(=O)[C@H](CCCNC(=N)N)NC1=O) [control peptide where glutamate was substituted for aspartate]”, in assay [1], the “effect on cell shape change of αV and β3 virus infected Sf9 cells” value was “no effect”.

Turning to “cyc(RβADfV) (cyclo(R[βAla]D[dF]V); SMILES CC(C)[C@@H]1NC(=O)[C@@H](Cc2ccccc2)NC(=O)[C@H](CC(=O)O)NC(=O)CCNC(=O)[C@H](CCCNC(=N)N)NC1=O) [control peptide where β-alanine was substituted for glycine]”, the “effect on cell shape change of αV and β3 virus infected Sf9 cells” value in assay [1] is on record as “no effect”.

For fibronectin, the “binding of biotinylated ligand to immobilized receptor” value (shortened to “binding of biotinylated ligand”) in assay [2] is “bind both to the full length and soluble receptor preparations in a concentration dependent manner”.

Turning to fibrinogen, the “binding of biotinylated ligand” value in assay [2] is “bind both to the full length and soluble receptor preparations in a concentration dependent manner”.

With tunicamycin, the “production of the slower migrating (glycosylated) band” value in assay [3] is “inhibits the production of the slower migrating band”.

Regarding `CC(C)[C@@H]1NC(=O)[C@@H](Cc2ccccc2)NC(=O)[C@H](CC(=O)O)NC(=O)CNC(=O)[C@H](CCCNC(=N)N)NC1=O` [cyc(RGDfV)], the IC50 in assay [4] was 1 to 5 nM.

As to “vitronectin: purified RGD-containing ligand from human plasma, biotinylated”, the “binding of biotinylated ligand” value in assay [2] is “bind both to the full length and soluble receptor preparations in a concentration dependent manner”.
